Source: US7338949B2, “Mycobacterial inhibitors” (Janssen Pharmaceutica N.V., priority 2004, dated 2008)

Assays:
M. Smegmatis ATCC607 = assay: In-vitro method for testing compounds for anti-bacterial activity against strain M. Smegmatis ATCC607; assay type: cell-based; details: M. smegmatis growth inhibition, 48 hours at 37° C., Alamar Blue fluorescence; for IC50: Mycolicibacterium smegmatis, ATCC607, 48 h
Procedure: D.2. In-vitro method for testing compounds for anti-bacterial activity against strain M. Smegmatis ATCC607.
Flat-bottom, sterile 96-well plastic microtiter plates were filled with 180 μl of sterile deionized water, supplemented with 0.25% BSA. Subsequently, stock solutions (7.8× final test concentration) of compounds were added in 45 μl volumes to a series of duplicate wells in column 2 so as to allow evaluation of their effects on bacterial growth. Serial five-fold dilutions (45 μl in 180 μl) were made directly in the microtiter plates from column 2 to 11 using a customised robot system (Zymark Corp., Hopkinton, Mass.). Pipette tips were changed after every 3 dilutions to minimize pipetting errors with high hydrophobic compounds. Untreated control samples with (column 1) and without (column 12) inoculum were included in each microtiter plate. Approximately 250 CFU per well of bacteria inoculum, in a volume of 100 μl in 2.8× Mueller-Hinton broth medium, was added to the rows A to H, except column 12. The same volume of broth medium without inoculum was added to column 12 in row A to H. The cultures were incubated at 37° C. for 48 hours in a humidified 5% CO2 atmosphere (incubator with open air valve and continuous ventilation). At the end of incubation, two days after inoculation, the bacterial growth was quantitated fluorometrically. Therefore Alamar Blue (10×) was added to all wells in a volume of 20 μl and plates were incubated for another 2 hours at […]
The fluorescence was read in a computer-controlled fluorometer (Cytofluor, Biosearch) at an excitation wavelength of 530 nm and an emission wavelength of 590 nm (gain 30). The % growth inhibition achieved by the compounds was calculated according to standard methods. The pIC50 was defined as the 50% inhibitory concentration for bacterial growth.

Structure (SMILES) | IC50 (M. Smegmatis ATCC607) | melting point | pIC50 (M. Smegmatis ATCC607)
COc1nc2ccc(Br)cc2cc1[C@@H](c1ccc(Cl)cc1)[C@@]1(c2cccc3ccccc23)CCN(C)CO1 (single isomer, unassigned) [Compound 17] | 316 nM | – | –
COc1nc2ccc(Br)cc2cc1[C@@H](c1ccccc1)[C@@]1(c2cccc3ccccc23)CCN(C)CO1 (single isomer, unassigned) [Compound 11] | 316 nM | 108 °C | –
COc1nc2ccc(-c3ccccc3)cc2cc1[C@@H](c1ccccc1)[C@]1(c2cccc3ccccc23)CCN(C)CO1 (single isomer, unassigned) [Compound 6] | 25.1 nM | – | –
COc1nc2ccc(Cl)cc2cc1[C@@H](c1ccccc1)[C@@]1(c2cccc3ccccc23)CCN(C)CO1 (single isomer, unassigned) [Compound 3] | – | 189 °C | 5.1
COc1nc2ccc(Br)cc2cc1[C@H](c1ccccc1)C1(c2ccccc2)CCN(C)CO1 (single isomer, unassigned) [Compound 12] | 158 nM | 168 °C | –
CCN1CC[C@@](c2ccc(F)cc2F)(C(c2ccccc2)c2cc3cc(Br)ccc3nc2OC)OC1=O (single isomer, unassigned) [Compound 19] | – | 216 °C | –
CCN1CC[C@](c2ccc(F)cc2F)(C(c2ccccc2)c2cc3cc(Br)ccc3nc2OC)OC1=O (single isomer, unassigned) [Compound 5] | 20000 nM | 192 °C | –
COc1nc2ccc(-c3ccccc3)cc2cc1[C@@H](c1ccccc1)[C@@]1(c2cccc3ccccc23)CCN(C)CO1 (single isomer, unassigned) [Compound 13] | 316 nM | – | –
COc1ccc2nc(OC)c([C@@H](c3ccccc3)[C@]3(c4cccc5ccccc45)CCN(C)CO3)cc2c1 (single isomer, unassigned) [Compound 8] | 63.1 nM | – | –
COc1ccc2nc(OC)c([C@@H](c3ccccc3)[C@@]3(c4cccc5ccccc45)CCN(C)CO3)cc2c1 (single isomer, unassigned) [Compound 14] | 316 nM | – | –
COc1nc2ccc(Br)cc2cc1[C@@H](c1ccccc1)[C@]1(c2cccc3ccccc23)CCN(C)CO1 (single isomer, unassigned) [Compound 1] | 3.16 nM | 112 °C | –
COc1nc2ccc(Cl)cc2cc1[C@@H](c1ccccc1)[C@@]1(c2cccc3ccccc23)CC[N+](C)(C)CO1.[I-] (single isomer, unassigned) | – | 195 °C | –
COc1nc2ccc(Br)cc2cc1[C@@H](c1ccc(Cl)cc1)[C@]1(c2cccc3ccccc23)CCN(C)CO1 (single isomer, unassigned) [Compound 2] | 63.1 nM | 201 °C | –
COc1nc2ccc(Cl)cc2cc1[C@@H](c1ccccc1)[C@@]1(c2cccc3ccccc23)CCN(C)CO1 (single isomer, unassigned) [Compound 7] | – | – | 7.9
COc1nc2ccc(-c3ccco3)cc2cc1[C@@H](c1ccccc1)[C@@]1(c2cccc3ccccc23)CCN(C)CO1 (single isomer, unassigned) [Compound 16] | 316 nM | – | –
COc1nc2ccc(Cl)cc2cc1[C@@H](c1ccccc1)[C@]1(c2cccc3ccccc23)CC[N+](C)(C)CO1.[I-] (single isomer, unassigned) | – | 211 °C | –
